Test results as given in patent US20170042878A1 (THE GENERAL HOSPITAL CORPORATION, priority 2012, published 2017).
“Also recorded” adds a separate entry of the source. Where two headings read alike, the source gives them in different places.

Experiments:
C57BL/6N mice [1] = test: Two-day forced swim test (FST) in mice; format: in vivo, mouse
Method: (§1) Male 10 week C57BL/6N mice (Taconic) acclimated to a holding facility one week prior to testing. A two-day FST paradigm was employed, in which mice were exposed to a 10 minute test in absence of drug, and tested the following day in presence of drug in a 6 minute test. […] All animals were drug naïve and not previously exposed to behavioral testing.
Male C57BL6N/Tac mice were purchased from Taconic Farms (Germantown, N.Y.) at 10 weeks of age. Mice were housed four mice per cage upon arrival under a 12:12 h light/dark cycle and were allowed to acclimate for approximately one week prior to behavioral procedures. Food and water were provided ad libitum. All procedures followed the National Institutes of Health Guide for the Care and Use of Laboratory Animals, and were approved by the Massachusetts Institute of Technology Animal Care and Use Committee.
Mice were tested in a two day forced swim test (FST) procedure. On day 1, all mice received mock intraperitoneal vehicle (i.p.) injections to acclimate to the injection procedure and, 30 minutes later, were placed into one of five identical cylindrical chambers (24 cm×15 cm) filled approximately halfway with warm water (26)±2° for 10 minutes with no data collected. On day 2, mice received i.p. injections 30 minutes prior to being placed in a cylinder for a 6 minute session and immobility time was scored automatically (EthoVisionXT; Noldus Information Technology; Wageningen, Netherlands) during the final 4 minutes.
For all FST behavioral experiments, the time spent immobile was the dependent variable, and data were analyzed by one-way analysis of variance (ANOVA) and Tukey post-hoc comparisons using SPSS v. 18 (IBM).

depressed patients = settings: cited from earlier work
mice [2] = settings: cited from earlier work
rats [3] = settings: cited from earlier work
BDNF = settings: ketamine sub-anesthetic doses; correlated with antidepressant effect; cited from earlier work
mTOR pathway = settings: ketamine 5 and 10 mg/kg i.p., cited from earlier work
[4] = in vivo; cited from earlier work
rabbit = settings: drugs injected immediately after completion of daily training sessions; cited from earlier work
[5] = ketamine injection 1 mg/kg; cited from earlier work
C57BL/6N mice [6] = test: Home cage observation of motor activation after administration, prior to FST; settings: scopolamine 0.5 and 1.0 mg/kg i.p.
Method: as §1
A dose at the low end of this range was selected (3 mg/kg i.p.) and administered to adult male C57BL/6N mice 30 min prior to the FST.

mice [7] = settings: scopolamine single administration 0.1 or 0.2 mg/kg i.p.; P<0.01 or P<0.001; cited from earlier work
mTOR signaling = settings: cited from earlier work
NMDA receptor 1A = settings: rat, in vivo; cited from earlier work
NMDA receptor 2A = settings: rat, in vivo; cited from earlier work
rats [8] = settings: rat, in vivo; cited from earlier work

Structure (SMILES): CNC1(c2ccccc2Cl)CCCCC1=O (stereo not shown) [ketamine]
- reduction in immobility versus vehicle (C57BL/6N mice [1]; ketamine 3 mg/kg i.p. 30 min prior to FST, modest and non-significant, FIG. 1): 18%
- effect on FST immobility time versus vehicle (C57BL/6N mice [1]; ketamine 3 mg/kg i.p. 30 minutes prior to testing, p>0.05, FIG. 1): modest non-significant antidepressant effect; also recorded: did not significantly reduce immobility time
- persistence of improvement in depression ratings (depressed patients; ketamine single intravenous infusion 0.5 mg/kg (Zarate et al., 2006)): approximately 1 week
- time to significant improvement in depression ratings after administration (depressed patients; ketamine single intravenous infusion 0.5 mg/kg): 1 to 2 h
- antidepressant effect in the FST (mice [2]; ketamine 3 mg/kg i.p., within 30 minutes, mouse models of depression (Autry et al., 2011)): exhibited an antidepressant effect
- forced swim test immobility time versus vehicle (rats [3]; ketamine 10 or 15 mg/kg i.p. (Garcia et al., 2008)): reduced forced swim test immobility time
- forced swim test effect (rats [3]; ketamine anesthetic dose 80 mg/kg i.p., immediately after treatment (Li et al., 2010)): no effect
- forced swim test immobility time versus vehicle (rats [3]; ketamine anesthetic dose 160 mg/kg i.p., tested 3, 7, or 10 days after treatment (Yilmaz et al., 2002)): significantly decreased
- levels of BDNF in the hippocampus (BDNF): increased levels of BDNF
- mature dendritic spines of medial PFC pyramidal neurons and serotonin-mediated cortical neurotransmission (mTOR pathway; at 24 hours): concomitant increases
- levels of pre- and postsynaptic proteins (mTOR pathway; two hours after treatment): increased levels
- phosphorylation and activation of mTOR pathway molecules in synaptoneurosomes from prefrontal cortex (mTOR pathway; within one hour of treatment): increase phosphorylation and activate several molecules in the mTOR pathway
- recognition memory aspect of task performance [4]: dose-dependent impairment
- effect on conditioning of the nictitating membrane response (rabbit): accelerates
- cerebral vasodilatation [5]: significant cerebral vasodilatation

Structure (SMILES): CN1[C@@H]2C[C@@H](OC(=O)[C@H](CO)c3ccccc3)C[C@H]1[C@@H]1O[C@@H]12 [scopolamine]
- effect on FST immobility time versus vehicle (C57BL/6N mice [1]; scopolamine 0.1 mg/kg i.p., p>0.05, FIG. 2): no change in immobility time versus vehicle; also recorded: did not significantly reduce immobility time
- effect on FST immobility time versus vehicle (C57BL/6N mice [1]; scopolamine 0.5 mg/kg and 1.0 mg/kg i.p., p<0.05, likely due to non-specific motor activation, FIG. 2): substantially reduced immobility time
- motor activation in the home cage after administration (C57BL/6N mice [6]): noticeably hyperactive; also recorded: visibly hyperactive
- time after which patients report improvement (depressed patients; scopolamine 0.004 mg/kg infusion (Furey and Drevets, 2006)): approximately 24 hours
- clinical outcome in depressed patients (depressed patients; scopolamine 0.004 mg/kg infusion, assessed 3 days after treatment): clinical improvement
- immobility times in the tail suspension test versus vehicle (mice [7]): decreased immobility times
- immobility times in the forced swim test versus vehicle (mice [2]; scopolamine single administration 0.1 or 0.2 mg/kg i.p., both P<0.001): decreased immobility times
- effect on antidepressant effects of desipramine and nomifensine in the forced swim test (rats [3]; scopolamine 0.5-1.0 mg/kg i.p., desipramine 20 or 30 mg/kg i.p., nomifensine 2.5 or 5 mg/kg i.p. (Mancinelli et al., 1988)): potentiated the antidepressant effects
- mTOR signaling (mTOR signaling): rapidly activate mTOR signaling
- expression of NMDA receptor 1A (NMDA receptor 1A): decrease expression
- expression of NMDA receptor 2A (NMDA receptor 2A): decrease expression
- incremental acquisition aspect of task performance [4]: dose x difficulty related impairment
- recognition memory aspect of task performance [4]: dose x difficulty related impairment
- effect on conditioning of the nictitating membrane response (rabbit): retards
- effect on ketamine-induced cerebral vasodilatation [5]: blocked
- adult neurogenesis (rats [8]): suppress adult neurogenesis
